According to PMC4492579, “Potent and Selective Triazole-Based Inhibitors of the Hypoxia-Inducible Factor Prolyl-Hydroxylases with Activity in the Murine Brain” (PLoS ONE, 2015):
pIC50: −log10 of the molar value. Counter-ions that a name gives are not always drawn.

What was measured:
[1] = molecular target: T1, JMJD2E (KDM4E) (Homo sapiens, UniProt B2RXH2); test: KDM AlphaScreen assay, JMJD2E
T1 sequence (B2RXH2 1-506): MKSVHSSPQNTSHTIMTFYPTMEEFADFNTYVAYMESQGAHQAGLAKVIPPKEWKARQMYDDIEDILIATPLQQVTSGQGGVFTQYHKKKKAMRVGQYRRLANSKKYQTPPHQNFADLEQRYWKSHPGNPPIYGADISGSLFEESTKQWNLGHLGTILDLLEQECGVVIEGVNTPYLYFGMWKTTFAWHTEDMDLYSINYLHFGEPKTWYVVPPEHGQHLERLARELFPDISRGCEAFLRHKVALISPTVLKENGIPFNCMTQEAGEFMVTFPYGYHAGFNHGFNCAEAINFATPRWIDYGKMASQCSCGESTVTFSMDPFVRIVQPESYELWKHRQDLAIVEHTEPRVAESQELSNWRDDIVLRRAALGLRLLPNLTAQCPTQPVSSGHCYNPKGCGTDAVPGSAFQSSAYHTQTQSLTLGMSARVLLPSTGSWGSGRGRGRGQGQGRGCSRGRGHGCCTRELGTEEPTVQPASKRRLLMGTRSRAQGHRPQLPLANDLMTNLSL
Description: Inhibition assays for PHD2 (AlphaScreen) [9], the KDMs (AlphaScreen) [17], BBOX [18] and FTO [19] were carried out as previously described. […] IC50 values were calculated using nonlinear regression with normalized dose-response fit using GraphPad Prism 5.

[2] = molecular target: T2, JMJD2C (KDM4C) (Homo sapiens, UniProt Q9H3R0); test: KDM AlphaScreen assay, JMJD2C
T2 sequence (Q9H3R0 1-1056): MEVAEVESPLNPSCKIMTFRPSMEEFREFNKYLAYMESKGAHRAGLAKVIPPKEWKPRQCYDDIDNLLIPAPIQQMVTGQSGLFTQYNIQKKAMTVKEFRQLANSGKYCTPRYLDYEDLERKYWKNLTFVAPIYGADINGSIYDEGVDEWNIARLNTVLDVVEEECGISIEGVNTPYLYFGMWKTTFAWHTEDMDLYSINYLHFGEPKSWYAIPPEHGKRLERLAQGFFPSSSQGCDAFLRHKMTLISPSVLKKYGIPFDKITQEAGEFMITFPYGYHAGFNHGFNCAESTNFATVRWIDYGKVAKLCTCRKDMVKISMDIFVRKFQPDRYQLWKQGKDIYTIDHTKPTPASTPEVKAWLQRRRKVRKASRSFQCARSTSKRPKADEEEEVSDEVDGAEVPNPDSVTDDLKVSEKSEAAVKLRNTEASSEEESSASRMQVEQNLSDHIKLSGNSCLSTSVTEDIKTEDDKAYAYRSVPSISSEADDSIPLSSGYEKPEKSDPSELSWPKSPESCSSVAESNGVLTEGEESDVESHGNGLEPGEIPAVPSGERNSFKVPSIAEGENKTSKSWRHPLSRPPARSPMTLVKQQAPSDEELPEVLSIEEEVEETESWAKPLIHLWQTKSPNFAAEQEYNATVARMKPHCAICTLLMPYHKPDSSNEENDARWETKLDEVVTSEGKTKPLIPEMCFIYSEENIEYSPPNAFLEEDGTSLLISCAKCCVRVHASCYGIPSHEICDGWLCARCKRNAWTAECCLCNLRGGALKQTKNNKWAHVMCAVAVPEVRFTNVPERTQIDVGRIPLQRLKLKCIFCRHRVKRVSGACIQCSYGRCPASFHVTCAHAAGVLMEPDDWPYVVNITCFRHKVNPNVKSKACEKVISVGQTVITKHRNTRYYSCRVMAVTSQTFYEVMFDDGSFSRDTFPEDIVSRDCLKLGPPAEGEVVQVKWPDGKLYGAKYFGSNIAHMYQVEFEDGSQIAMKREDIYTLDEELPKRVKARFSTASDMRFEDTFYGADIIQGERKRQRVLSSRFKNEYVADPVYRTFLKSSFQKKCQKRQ
Description: (§1) Inhibition assays for PHD2 (AlphaScreen) [9], the KDMs (AlphaScreen) [17], BBOX [18] and FTO [19] were carried out as previously described. N-Terminally biotinylated 19-residue human HIF1α CODD peptide ([sequence]) used in the PHD2 inhibition assays was from GL Biochem (Shanghai). IC50 values were calculated using nonlinear regression with normalized dose-response fit using GraphPad Prism 5.

[3] = molecular target: T3, JMJD2A (KDM4A) (Homo sapiens, UniProt O75164); test: KDM AlphaScreen assay, JMJD2A
T3 sequence (O75164 1-1064): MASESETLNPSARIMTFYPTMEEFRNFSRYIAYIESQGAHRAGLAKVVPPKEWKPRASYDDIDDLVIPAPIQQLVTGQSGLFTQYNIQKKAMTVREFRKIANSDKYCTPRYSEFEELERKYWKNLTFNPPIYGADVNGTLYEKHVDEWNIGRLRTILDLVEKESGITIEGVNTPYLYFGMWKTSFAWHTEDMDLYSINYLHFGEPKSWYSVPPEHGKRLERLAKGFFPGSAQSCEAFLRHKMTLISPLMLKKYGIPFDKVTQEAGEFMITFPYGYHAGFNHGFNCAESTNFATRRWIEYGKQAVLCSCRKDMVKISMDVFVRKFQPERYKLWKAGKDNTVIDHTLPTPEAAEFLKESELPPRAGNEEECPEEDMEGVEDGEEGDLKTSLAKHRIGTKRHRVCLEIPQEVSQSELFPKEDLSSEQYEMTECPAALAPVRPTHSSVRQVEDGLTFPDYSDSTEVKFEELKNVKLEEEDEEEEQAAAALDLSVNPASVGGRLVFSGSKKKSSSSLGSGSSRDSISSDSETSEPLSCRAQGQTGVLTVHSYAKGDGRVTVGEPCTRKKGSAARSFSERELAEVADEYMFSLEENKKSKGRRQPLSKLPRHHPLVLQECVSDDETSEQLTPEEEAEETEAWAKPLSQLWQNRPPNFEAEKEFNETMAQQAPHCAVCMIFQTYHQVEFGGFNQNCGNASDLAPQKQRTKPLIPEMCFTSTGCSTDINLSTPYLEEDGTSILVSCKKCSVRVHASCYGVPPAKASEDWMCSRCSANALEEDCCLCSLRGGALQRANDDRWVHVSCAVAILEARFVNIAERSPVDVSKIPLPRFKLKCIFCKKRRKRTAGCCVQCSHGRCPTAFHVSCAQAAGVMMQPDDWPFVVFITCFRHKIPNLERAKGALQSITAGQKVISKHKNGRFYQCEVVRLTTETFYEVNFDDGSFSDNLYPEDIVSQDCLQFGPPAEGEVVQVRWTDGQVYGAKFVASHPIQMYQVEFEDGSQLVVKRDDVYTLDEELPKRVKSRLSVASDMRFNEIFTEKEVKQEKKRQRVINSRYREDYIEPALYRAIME
Description: as §1

SMILES | pIC50 [1] | pIC50 [2] | pIC50 [3]
CC(C)(C)OC(=O)c1ccc(-n2[nH]cc(-n3ccnn3)c2=O)nc1 [IOX4, t-Butyl 6-(5-oxo-4-(1H-1,2,3-triazol-1-yl)-2,5-dihydro-1H-pyrazol-1-yl)nicotinate] | < 4.70 | < 4.70 | < 4.70
O=C(O)c1ccc(-n2[nH]cc(-n3ccnn3)c2=O)nc1 [compound 1, 6-(5-oxo-4-(1H-1,2,3-triazol-1-yl)-2,5-dihydro-1H-pyrazol-1-yl)pyridine-3-carbocylic acid hydrochloride] | < 4.70 | < 4.70 | < 4.70
